Laboratory results taken from article PMC12254266, “Multicolored sequential resonance energy transfer for detection of simultaneous ligand binding at G protein-coupled receptors” (Nature Communications, 2025).
Values joined by “and” are separate entries in the source; they are usually repeats but may differ in a detail not shown here. Equal entries are not always repeated.

Molecular target: FFA1-Nluc (Homo sapiens, UniProt O14842)
Assay: DISCo-BRET (endpoint, spectra scan, kinetics) with TUG-2591 and TUG-2597 at C terminal Nluc tagged FFA1
Assay type: binding
Parameters: expressed in transfected cells
Conditions: for Specific BRET (690/540), % of control: Figure 4Aiii; for Specific BRET (690/540), % of control / Specific BRET (540/450), % of control: single replicate values (technical duplicate); for Specific BRET (540/450), % of control: Figure 4Biii
Procedure: Nluc-FFA1 or FFA1-Nluc Flp-In T-REx 293 cells were plated at 50,000 cells per well in poly-D-lysine coated white 96-well plates. Cells were cultured for 24 h in the plate before medium was replaced with medium containing 100 ng/mL of doxycycline to induce receptor expression. After culturing for a further 24 h, culture medium was removed, cells washed with HBSS and incubated in HBSS for 30 min. For all DISCo-BRET formats Nano-Glo substrate was then added at a 1:800 final dilution and cells incubated for 10 min. Following substrate addition experimental set up different among the three formats: endpoint, spectra scan, and kinetics.
For endpoint experiments all fluorescent and unlabelled ligands were added to the cells and incubated for 5 min at 37 °C. Luminescent emission was then measured using a CLARIOstar microplate reader with monochromator set at 450–60 nm (Nluc), 540−60 nm (NBD) and 690–100 nm (SulfoCy5). BRET ratios were then calculated as either SulfoCy5 emission divided by NBD emission, SulfoCy5 emission divided by Nluc emission, or NBD emission divided by Nluc emission.
For spectra scan experiments all indicated fluorescent and unlabelled ligands were added to the cells and cells incubated for 5 min at 37 °C. Luminescence emissions were then measured from each well of the plate from 440 nm – 740 nm with a 5 nm resolution using a CLARIOstar microplate. Luminescent emission spectra were then normalised as a percentage of the maximal Nluc emission peak ( ~ 460 nm), then subtracted with the spectrum obtained in the presence of high concentrations of ligands competing for both binding sites to obtain specific BRET binding spectra.
In kinetic DISCo-BRET experiments plates were placed directly in a CLARIOstar plate reader set to 25 °C 10 min after Nano-Glo substrate addition. Luminescent measurements were then taken with three sequential measurements per well with the monochromator set to 450–60 nm (Nluc), 540 - 60 nm (NBD) and 690–100 nm (SulfoCy5) taken in 20 or 30 s intervals. After 5 min of background measurements, the plate reader was paused for the first indicated fluorescent ligand(s) addition, before immediately returning the plate to the reader to continue luminescence readings. After 5 min, the reader was again paused to add the second fluorescent ligand (association assays) or competing ligand(s) (dissociation assays), before immediately continuing the measurements for the indicated time. Non-specific control binding was obtained by adding the indicated competing ligand(s) 5 min prior to the addition of the first fluorescent ligand.

Sequence of FFA1-Nluc (O14842 whole entry): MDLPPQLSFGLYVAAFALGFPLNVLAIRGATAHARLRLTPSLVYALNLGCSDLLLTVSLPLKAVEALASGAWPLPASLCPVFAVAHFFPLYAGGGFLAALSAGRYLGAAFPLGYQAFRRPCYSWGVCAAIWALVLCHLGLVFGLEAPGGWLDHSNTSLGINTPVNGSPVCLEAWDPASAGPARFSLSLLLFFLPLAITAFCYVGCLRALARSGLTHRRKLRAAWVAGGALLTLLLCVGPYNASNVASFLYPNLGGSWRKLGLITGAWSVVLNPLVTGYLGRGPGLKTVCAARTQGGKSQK

pIC50 DISCo-BRET SulfoCy5/NBD (100 nM TUG-2591 and […] TUG-2597, one site model, NC = No competition): 6.2±0.07 | 'bottom' of the IC50 curve, DISCo-BRET SulfoCy5/NBD (percentage of binding obtained in the absence of competing ligand, 100 nM TUG-2591 and […] TUG-2597): 26% | pKi DISCo-BRET SulfoCy5/NBD (using Kd TUG-2591 57 nM): 6.6±0.07
Structure (SMILES): CCCN1C(=O)c2ccccc2[C@@H](C(=O)O)[C@@H]1c1ccc(OCc2cccc(-c3ccc(OCCOCCNC(=O)OC(C)(C)C)cc3C)c2)cc1 (racemic) [TUG-2744]
Specific BRET (690/540), % of control (log[Ligand] -5): 39.83 % of control and 31.90 % of control and 49.72 % of control and 41.62 % of control and 42.27 % of control and 54.60 % of control and 24.29 % of control and 24.93 % of control | Specific BRET (540/450), % of control (log[Ligand] -5): 137.97 % of control and 140.19 % of control and 93.19 % of control and 74.76 % of control | Specific BRET (690/540), % of control (log[Ligand] -5.5): 37.03 % of control and 28.64 % of control and 34.65 % of control and 33.07 % of control and 31.01 % of control and 33.80 % of control and 21.95 % of control and 22.19 % of control | Specific BRET (540/450), % of control (log[Ligand] -5.5): 128.99 % of control and 129.28 % of control and 107.91 % of control and 104.11 % of control and 75.59 % of control and 66.37 % of control | Specific BRET (690/540), % of control (log[Ligand] -6): 54.48 % of control and 58.02 % of control and 68.62 % of control and 58.61 % of control and 60.18 % of control and 39.48 % of control and 47.55 % of control and 54.64 % of control | Specific BRET (540/450), % of control (log[Ligand] -6): 100.93 % of control and 117.25 % of control and 87.18 % of control and 77.69 % of control and 68.48 % of control and 67.29 % of control | Specific BRET (690/540), % of control (log[Ligand] -6.5): 81.72 % of control and 80.69 % of control and 83.13 % of control and 96.40 % of control and 81.56 % of control and 79.15 % of control and 75.55 % of control and 78.81 % of control | Specific BRET (540/450), % of control (log[Ligand] -6.5): 102.36 % of control and 114.39 % of control and 83.39 % of control and 83.86 % of control and 94.27 % of control and 96.38 % of control | Specific BRET (690/540), % of control (log[Ligand] -7): 91.79 % of control and 92.91 % of control and 97.64 % of control and 109.79 % of control and 98.51 % of control and 104.19 % of control and 93.40 % of control and 97.61 % of control | Specific BRET (540/450), % of control (log[Ligand] -7): 116.11 % of control and 107.80 % of control and 95.73 % of control and 91.61 % of control and 84.18 % of control and 85.41 % of control | Specific BRET (690/540), % of control (log[Ligand] -8): 103.08 % of control and 96.92 % of control and 107.31 % of control and 115.19 % of control and 106.98 % of control and 101.78 % of control and 103.46 % of control and 103.17 % of control | Specific BRET (540/450), % of control (log[Ligand] -8): 110.67 % of control and 105.51 % of control and 101.90 % of control and 100.00 % of control and 64.33 % of control and 77.86 % of control | Specific BRET (690/540), % of control (log[Ligand] -9): 95.62 % of control and 111.25 % of control and 100.79 % of control and 103.71 % of control and 132.11 % of control | Specific BRET (540/450), % of control (log[Ligand] -9): 110.95 % of control and 125.84 % of control and 113.61 % of control and 148.10 % of control and 60.11 % of control and 65.92 % of control
